We go through one compound from US9714233B2, “Processes and intermediates for making a JAK inhibitor” (Incyte Corporation, priority 2013, dated 2017).

One may read the IC50 as the concentration that inhibits the measured activity by half.

This test deals with T1, human JAK1 (a.a. 837-1142) catalytic domain (Homo sapiens, UniProt P23458).
T1 construct: human JAK1 (a.a. 837-1142); His tag (N); made in house; host or cells: insect cells (baculovirus)
Kind of test: In vitro JAK kinase assay (HTRF, phosphorylation of biotinylated peptide), JAK1. The note with it: measured at 1 mM ATP. Format: biochemical. As for the experimental part:
The compound of Formula I was tested for inhibitory activity of JAK targets according to the following in vitro assay described in Park et al., Analytical Biochemistry 1999, 269, 94-104. The catalytic domains of human JAK1 (a.a. 837-1142) and JAK2 (a.a. 828-1132) with an N-terminal His tag were expressed using baculovirus in insect cells and purified. The catalytic activity of JAK1 and JAK2 was assayed by measuring the phosphorylation of a biotinylated peptide. The phosphorylated peptide was detected by homogenous time resolved fluorescence (HTRF). IC50s of compounds were measured for each kinase in the 40 microL reactions that contain the enzyme, ATP and 500 nM peptide in 50 mM Tris (pH 7.8) buffer with 100 mM NaCl, 5 mM DTT, and 0.1 mg/mL (0.01%) BSA. For the 1 mM IC50 measurements, ATP concentration in the reactions was 1 mM. Reactions were carried out at room temperature for 1 hr and then stopped with 20 μL 45 mM EDTA, 300 nM SA-APC, 6 nM Eu-Py20 in assay buffer (Perkin Elmer, Boston, Mass.). Binding to the Europium labeled antibody took place for 40 minutes and HTRF signal was measured on a Fusion plate reader (Perkin Elmer, Boston, Mass.).
In general terms: Time-resolved FRET reads energy transfer from a long-lived donor to a nearby acceptor.

T1 sequence (P23458 849-1154 limits assumed): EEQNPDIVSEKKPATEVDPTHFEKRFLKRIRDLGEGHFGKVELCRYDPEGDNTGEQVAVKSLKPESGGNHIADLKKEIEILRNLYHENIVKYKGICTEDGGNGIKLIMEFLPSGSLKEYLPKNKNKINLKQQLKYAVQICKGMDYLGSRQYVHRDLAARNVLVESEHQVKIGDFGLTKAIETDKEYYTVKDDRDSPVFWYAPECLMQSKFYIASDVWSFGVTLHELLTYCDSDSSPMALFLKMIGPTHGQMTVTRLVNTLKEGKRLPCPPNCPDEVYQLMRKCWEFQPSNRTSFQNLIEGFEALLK

Compound `N#CCC1(n2cc(-c3ncnc4[nH]ccc34)cn2)CN(C2CCN(C(=O)c3ccnc(C(F)(F)F)c3F)CC2)C1` [Formula I, {1-{1-[3-fluoro-2-(trifluoromethyl)isonicotinoyl]piperidin-4-yl}-3-[4-(7H-pyrrolo[2,3-d]pyrimidin-4-yl)-1H-pyrazol-1-yl]azetidin-3-yl}acetonitrile] displayed an IC50 of no more than 5 nM.
